Molecules are shown by their SMILES. pIC50: −log10 of the molar value.

Chain of influenza A virus minigenome (PB2, PB1, PA, NP proteins) (P04665 whole entry): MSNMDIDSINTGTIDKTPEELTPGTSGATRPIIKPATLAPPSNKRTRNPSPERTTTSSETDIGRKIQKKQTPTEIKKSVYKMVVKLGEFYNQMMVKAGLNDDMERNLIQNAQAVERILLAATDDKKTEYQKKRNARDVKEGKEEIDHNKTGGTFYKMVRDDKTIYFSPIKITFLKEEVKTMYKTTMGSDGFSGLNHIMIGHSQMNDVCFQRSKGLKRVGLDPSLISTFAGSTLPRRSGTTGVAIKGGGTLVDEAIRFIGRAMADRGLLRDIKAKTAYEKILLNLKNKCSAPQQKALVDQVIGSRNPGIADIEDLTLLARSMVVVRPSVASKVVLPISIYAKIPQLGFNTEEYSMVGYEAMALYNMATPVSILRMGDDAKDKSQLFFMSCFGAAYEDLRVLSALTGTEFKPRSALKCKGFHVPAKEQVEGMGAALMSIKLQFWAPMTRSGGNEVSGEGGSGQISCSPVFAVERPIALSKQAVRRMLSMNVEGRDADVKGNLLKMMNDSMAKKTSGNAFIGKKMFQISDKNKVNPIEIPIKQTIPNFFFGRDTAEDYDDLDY

One test concerns the target influenza A virus minigenome (PB2, PB1, PA, NP proteins) (UniProt P04665). In kind it is cell-based. The conditions noted are these: read-out: RNP_ Hubei B IC50.
For `NC(=O)c1cc(-c2ccc(OCC3COCCOC3)cc2)c(C(F)(F)F)[nH]c1=O` [Example 320, 5-(4-((1,4-dioxepan-6-yl)methoxy)phenyl)-2-oxo-6-(trifluoromethyl)-1,2-dihydropyridine-3-carboxamide], the pIC50 is 5.00 to 5.30.
On to `CC1(COc2ccc(-c3cc(C(N)=O)c(=O)[nH]c3C(F)(F)F)cc2)COCCOC1` [Example 321, 5-(4-((6-methyl-1,4-dioxepan-6-yl)methoxy)phenyl)-2-oxo-6-(trifluoromethyl)-1,2-dihydropyridine-3-carboxamide], for which the pIC50 is 5.00 to 5.30.
In the case of `NC(=O)c1cc(-c2ccc(OC[C@H]3COC[C@@H](C4CC4)O3)cc2)c(C(F)(F)F)[nH]c1=O` [Example 325, 5-(4-(((2R,6R)-6-cyclopropyl-1,4-dioxan-2-yl)methoxy)phenyl)-2-oxo-6-(trifluoromethyl)-1,2-dihydropyridine-3-carboxamide], the pIC50 is 4.60 to 5.00.
Still for that read-out and setting: in the case of `NC(=O)c1cc(-c2ccc(OC[C@H]3COC[C@H](C4CC4)O3)cc2)c(C(F)(F)F)[nH]c1=O` [Example 327, 5-(4-(((2R,6S)-6-cyclopropyl-1,4-dioxan-2-yl)methoxy)phenyl)-2-oxo-6-(trifluoromethyl)-1,2-dihydropyridine-3-carboxamide] it was 5.00 to 5.30.
In the case of `C[C@@H]1COC[C@H](COc2ccc(-c3cc(C(N)=O)c(=O)[nH]c3C(F)(F)F)cc2)O1` [Example 328, 5-(4-(((2R,6R)-6-methyl-1,4-dioxan-2-yl)methoxy)phenyl)-2-oxo-6-(trifluoromethyl)-1,2-dihydropyridine-3-carboxamide], the pIC50 is 4.60 to 5.00.
On to `C[C@@H]1COC[C@@H](COc2ccc(-c3cc(C(N)=O)c(=O)[nH]c3C(F)(F)F)cc2)O1` [Example 329, 5-(4-(((2S,6R)-6-methyl-1,4-dioxan-2-yl)methoxy)phenyl)-2-oxo-6-(trifluoromethyl)-1,2-dihydropyridine-3-carboxamide], for which the pIC50 is 4.30 to 4.60.
Turning to `C[C@H]1COC[C@@H](COc2ccc(-c3cc(C(N)=O)c(=O)[nH]c3C(F)(F)F)cc2)O1` [Example 330, 5-(4-(((2S,6S)-6-methyl-1,4-dioxan-2-yl)methoxy)phenyl)-2-oxo-6-(trifluoromethyl)-1,2-dihydropyridine-3-carboxamide], the pIC50 was 4.30 to 4.60.
`C[C@H]1COC[C@H](COc2ccc(-c3cc(C(N)=O)c(=O)[nH]c3C(F)(F)F)cc2)O1` [Example 331, 5-(4-(((2R,6S)-6-methyl-1,4-dioxan-2-yl)methoxy)phenyl)-2-oxo-6-(trifluoromethyl)-1,2-dihydropyridine-3-carboxamide]: the pIC50 is 4.60 to 5.00.
Turning to `NC(=O)c1cc(-c2ccc(OCC3COCc4c(C5CC5)nnn43)cc2)c(C(F)(F)F)[nH]c1=O` (stereo not shown) [Example 381, 5-(4-((3-cyclopropyl-6,7-dihydro-4H-[1,2,3]triazolo[5,1-c][1,4]oxazin-7-yl)methoxy)phenyl)-2-oxo-6-(trifluoromethyl)-1,2-dihydropyridine-3-carboxamide], the pIC50 is 5.00 to 5.30.
Consider `COC(C)(C)C1COCC(COc2ccc(-c3cc(C(N)=O)c(=O)[nH]c3C(F)(F)F)cc2)O1` (stereo not shown) [Example 382, 5-(4-((6-(2-methoxypropan-2-yl)-1,4-dioxan-2-yl)methoxy)phenyl)-2-oxo-6-(trifluoromethyl)-1,2-dihydropyridine-3-carboxamide], for which the pIC50 is 5.00 to 5.30.
Consider `NC(=O)c1cc(-c2ccc(OCC3COCC(CO)O3)cc2)c(C(F)(F)F)[nH]c1=O` (stereo not shown) [Example 384, 5-(4-((6-(hydroxymethyl)-1,4-dioxan-2-yl)methoxy)phenyl)-2-oxo-6-(trifluoromethyl)-1,2-dihydropyridine-3-carboxamide], for which the pIC50 is 5.00 to 5.30.
On the same count and under the same terms, with `NC(=O)c1cc(-c2ccc(OCC3(F)COCCO3)cc2)c(C(F)(F)F)[nH]c1=O` (stereo not shown) [Example 388, 5-(4-((2-fluoro-1,4-dioxan-2-yl)methoxy)phenyl)-2-oxo-6-(trifluoromethyl)-1,2-dihydropyridine-3-carboxamide] the figure was 5.00 to 5.30; with `NC(=O)c1cc(-c2ccc(OCC3CO[C@@H]4[C@H](O3)C4(F)F)cc2)c(C(F)(F)F)[nH]c1=O` (stereo partly drawn) [Example 390, 5-(4-((cis-7,7-difluoro-2,5-dioxabicyclo[4.1.0]heptan-3-yl)methoxy)phenyl)-2-oxo-6-(trifluoromethyl)-1,2-dihydropyridine-3-carboxamide], 5.30 to 6.00; with `NC(=O)c1cc(-c2ccc(OC[C@H]3CO[C@H]4[C@@H](O3)C4(F)F)cc2)c(C(F)(F)F)[nH]c1=O` [Example 391, 5-(4-((trans-7,7-difluoro-2,5-dioxabicyclo[4.1.0]heptan-3-yl)methoxy)phenyl)-2-oxo-6-(trifluoromethyl)-1,2-dihydropyridine-3-carboxamide], 5.30 to 6.00.
For the compound `C[C@]12O[C@H](COc3ccc(-c4cc(C(N)=O)c(=O)[nH]c4C(F)(F)F)cc3)CO[C@H]1C2(F)F` [Example 394, 5-(4-(((1S,3S,6R)-7,7-difluoro-1-methyl-2,5-dioxabicyclo[4.1.0]heptan-3-yl)methoxy)phenyl)-2-oxo-6-(trifluoromethyl)-1,2-dihydropyridine-3-carboxamide], the pIC50 is 5.00 to 5.30.
As to `C[C@@]12O[C@H](COc3ccc(-c4cc(C(N)=O)c(=O)[nH]c4C(F)(F)F)cc3)CO[C@@H]1C2(F)F` [Example 395, 55-(4-(((1R,3S,6S)-7,7-difluoro-1-methyl-2,5-dioxabicyclo[4.1.0]heptan-3-yl)methoxy)phenyl)-2-oxo-6-(trifluoromethyl)-1,2-dihydropyridine-3-carboxamide], the pIC50 was 5.00 to 5.30.
In the case of `C[C@@]12O[C@@H](COc3ccc(-c4cc(C(N)=O)c(=O)[nH]c4C(F)(F)F)cc3)CO[C@@H]1C2(F)F` [Example 396, 5-(4-(((1R,3R,6S)-7,7-difluoro-1-methyl-2,5-dioxabicyclo[4.1.0]heptan-3-yl)methoxy)phenyl)-2-oxo-6-(trifluoromethyl)-1,2-dihydropyridine-3-carboxamide], the pIC50 was 5.00 to 5.30.
On the same count and under the same terms, with `C[C@]12O[C@@H](COc3ccc(-c4cc(C(N)=O)c(=O)[nH]c4C(F)(F)F)cc3)CO[C@H]1C2(F)F` [Example 397, 5-(4-(((1S,3R,6R)-7,7-difluoro-1-methyl-2,5-dioxabicyclo[4.1.0]heptan-3-yl)methoxy)phenyl)-2-oxo-6-(trifluoromethyl)-1,2-dihydropyridine-3-carboxamide] the figure was 5.00 to 5.30; with `COC[C@H]1COC[C@@H](COc2ccc(-c3cc(C(N)=O)c(=O)[nH]c3C(F)(F)F)cc2)O1` [Example 398, 5-(4-(((2S,6S)-6-(methoxymethyl)-1,4-dioxan-2-yl)methoxy)phenyl)-2-oxo-6-(trifluoromethyl)-1,2-dihydropyridine-3-carboxamide], 5.00 to 5.30.
`COC[C@@H]1COC[C@@H](COc2ccc(-c3cc(C(N)=O)c(=O)[nH]c3C(F)(F)F)cc2)O1` [Example 399, 5-(4-(((2S,6R)-6-(methoxymethyl)-1,4-dioxan-2-yl)methoxy)phenyl)-2-oxo-6-(trifluoromethyl)-1,2-dihydropyridine-3-carboxamide]: the pIC50 was 5.00 to 5.30.
Turning to `CC(C)OC[C@H]1COC[C@@H](COc2ccc(-c3cc(C(N)=O)c(=O)[nH]c3C(F)(F)F)cc2)O1` [Example 402, 5-(4-(((2S,6R)-6-(isopropoxymethyl)-1,4-dioxan-2-yl)methoxy)phenyl)-2-oxo-6-(trifluoromethyl)-1,2-dihydropyridine-3-carboxamide], the pIC50 is 5.00 to 5.30.
For the compound `NC(=O)c1cc(-c2ccc(OC[C@@H]3COC[C@H](C4CC4)O3)cc2)c(C(F)(F)F)[nH]c1=O` [Example 404, 5-(4-(((2S,6S)-6-cyclopropyl-1,4-dioxan-2-yl)methoxy)phenyl)-2-oxo-6-(trifluoromethyl)-1,2-dihydropyridine-3-carboxamide], the pIC50 is 4.60 to 5.00.
On to `COC[C@@]1(C)COC[C@@H](COc2ccc(-c3cc(C(N)=O)c(=O)[nH]c3C(F)(F)F)cc2)O1` [Example 405, 5-(4-(((2S,6S)-6-(methoxymethyl)-6-methyl-1,4-dioxan-2-yl)methoxy)phenyl)-2-oxo-6-(trifluoromethyl)-1,2-dihydropyridine-3-carboxamide], for which the pIC50 was 5.00 to 5.30.
Turning to `COC[C@]1(C)COC[C@@H](COc2ccc(-c3cc(C(N)=O)c(=O)[nH]c3C(F)(F)F)cc2)O1` [Example 406, 5-(4-(((2S,6R)-6-(methoxymethyl)-6-methyl-1,4-dioxan-2-yl)methoxy)phenyl)-2-oxo-6-(trifluoromethyl)-1,2-dihydropyridine-3-carboxamide], the pIC50 is 5.00 to 5.30.
With `COC[C@]1(C)COC[C@H](COc2ccc(-c3cc(C(N)=O)c(=O)[nH]c3C(F)(F)F)cc2)O1` [Example 407, 5-(4-(((2R,6R)-6-(methoxymethyl)-6-methyl-1,4-dioxan-2-yl)methoxy)phenyl)-2-oxo-6-(trifluoromethyl)-1,2-dihydropyridine-3-carboxamide], the pIC50 was 5.00 to 5.30.
With `COC[C@@]1(C)COC[C@H](COc2ccc(-c3cc(C(N)=O)c(=O)[nH]c3C(F)(F)F)cc2)O1` [Example 408, 5-(4-(((2R,6S)-6-(methoxymethyl)-6-methyl-1,4-dioxan-2-yl)methoxy)phenyl)-2-oxo-6-(trifluoromethyl)-1,2-dihydropyridine-3-carboxamide], the pIC50 is 5.00 to 5.30.
Still for that read-out and setting: in the case of `CN(C)C(=O)[C@@]1(C)COC[C@@H](COc2ccc(-c3cc(C(N)=O)c(=O)[nH]c3C(F)(F)F)cc2)O1` [Example 409, 5-(4-(((2S,6R)-6-(dimethylcarbamoyl)-6-methyl-1,4-dioxan-2-yl)methoxy)phenyl)-2-oxo-6-(trifluoromethyl)-1,2-dihydropyridine-3-carboxamide] it was 5.00 to 5.30.

Staying with this test, now noted: read-out: RNP_Hubei B.
On to `NC(=O)c1cc(-c2ccc(OC(F)(F)C3COCCO3)cc2)c(C(F)(F)F)[nH]c1=O` (stereo not shown) [Example 389, 5-(4-((1,4-dioxan-2-yl)difluoromethoxy)phenyl)-2-oxo-6-(trifluoromethyl)-1,2-dihydropyridine-3-carboxamide], for which the pIC50 was 5.00 to 5.30.

Source of the values: US20240360082A1, “SUBSTITUTED PYRIDONE COMPOUNDS USEFUL TO TREAT ORTH[…]” (priority 2021, published 2024).
